Structures can show the parent of a compound that is named as a salt. Where two headings read alike, the source gives them in different places.
What was measured:
Type in all cases: biochemical
MASP-2 (CCP1-CCP2-SP) = MASP-2 (CCP1-CCP2-SP) (Homo sapiens (Human), UniProt O00187); test: biochemical; conditions: for MASP-2 vs. thrombin selectivity: selectivity for MASP-2 inhibition versus thrombin
mMASP-2 = mMASP-2 (Mus musculus (Mouse), UniProt Q91WP0); test: Enzymatic inhibition of mMASP-2; conditions: read-out: mMASP-2 Ki
human α-thrombin = human α-thrombin (Homo sapiens (Human), UniProt P00734); test: Enzymatic assay for thrombin (Boc-VPR-AMC substrate)

Chain of MASP-2 (CCP1-CCP2-SP) (O00187 445-686): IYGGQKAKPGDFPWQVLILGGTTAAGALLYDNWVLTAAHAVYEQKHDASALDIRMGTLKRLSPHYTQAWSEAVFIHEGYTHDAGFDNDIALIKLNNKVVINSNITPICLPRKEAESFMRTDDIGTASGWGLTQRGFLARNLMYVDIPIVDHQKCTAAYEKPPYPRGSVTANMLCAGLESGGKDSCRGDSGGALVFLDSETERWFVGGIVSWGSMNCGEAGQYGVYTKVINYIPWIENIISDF
Chain of mMASP-2 (Q91WP0 20-685): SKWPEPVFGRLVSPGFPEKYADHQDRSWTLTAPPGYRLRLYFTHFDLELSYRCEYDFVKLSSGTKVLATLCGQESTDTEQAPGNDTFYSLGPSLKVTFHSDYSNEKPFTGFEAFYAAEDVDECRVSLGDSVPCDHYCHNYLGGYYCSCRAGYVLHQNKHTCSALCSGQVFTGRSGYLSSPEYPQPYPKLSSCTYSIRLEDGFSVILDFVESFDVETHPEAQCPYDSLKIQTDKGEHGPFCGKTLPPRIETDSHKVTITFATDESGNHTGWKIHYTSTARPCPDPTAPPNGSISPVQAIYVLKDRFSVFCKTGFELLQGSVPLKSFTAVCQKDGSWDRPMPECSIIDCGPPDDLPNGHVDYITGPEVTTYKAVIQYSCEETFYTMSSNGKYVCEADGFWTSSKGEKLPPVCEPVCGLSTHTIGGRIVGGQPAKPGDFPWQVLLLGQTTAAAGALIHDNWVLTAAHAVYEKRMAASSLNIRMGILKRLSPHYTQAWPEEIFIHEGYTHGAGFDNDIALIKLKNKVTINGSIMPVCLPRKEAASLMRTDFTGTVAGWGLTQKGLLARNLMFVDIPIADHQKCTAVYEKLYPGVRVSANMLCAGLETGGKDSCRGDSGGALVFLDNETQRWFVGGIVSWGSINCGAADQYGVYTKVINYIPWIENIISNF

C[C@H](NC(=O)[C@H]1C[C@H](Cc2ccccc2)CN1)C(=O)NCc1cc(Cl)cc(Cl)c1O [compound 1448, (2R,4S)-4-benzyl-N-((S)-1-((3,5-dichloro-2-hydroxybenzyl)amino)-1-oxopropan-2-yl)pyrrolidine-2-carboxamide, hydrochloride]
Ki (MASP-2 (CCP1-CCP2-SP); read-out: MASP-2 Ki): < 500 nM
MASP-2 vs. thrombin selectivity (MASP-2 (CCP1-CCP2-SP)): **** (≥100-fold)
Ki (mMASP-2): 2500 to 10000 nM
Ki (human α-thrombin; read-out: Thrombin Ki): > 25 µM

Cc1nc(N)ccc1CNC(=O)[C@H](C)NC(=O)[C@H]1C[C@H](Cc2ccc(OC(F)(F)F)c(Cl)c2)CN1 [compound 1455, (2R,4S)—N—((S)-1-(((6-Amino-2-methylpyridin-3-yl)methyl)amino)-1-oxopropan-2-yl)-4-(3-chloro-4-(trifluoromethoxy)benzyl)pyrrolidine-2-carboxamide Di-trifluoroacetate salt]
Ki (MASP-2 (CCP1-CCP2-SP); read-out: MASP-2 Ki): < 500 nM
MASP-2 vs. thrombin selectivity (MASP-2 (CCP1-CCP2-SP)): **** (≥100-fold)
Ki (mMASP-2): < 500 nM
Ki (human α-thrombin; read-out: Thrombin Ki): > 25 µM

C[C@H](NC(=O)[C@H]1C[C@H](c2ccccc2)CN1)C(=O)NCc1cnc2cccc(Cl)c2c1 [compound 1457, (2R,4R)—N—((S)-1-(((5-chloroquinolin-3-yl)methyl)amino)-1-oxopropan-2-yl)-4-phenylpyrrolidine-2-carboxamide]
Ki (MASP-2 (CCP1-CCP2-SP)): 10000 to 25000 nM
Ki (mMASP-2): 2500 to 10000 nM
Ki (human α-thrombin; read-out: Thrombin Ki): > 25 µM

Cc1nc(N)ccc1CNC(=O)[C@H](C)NC(=O)[C@H]1C[C@H](Cc2cc3ccccc3s2)CN1 [compound 1458, (2R,4R)—N—((S)-1-(((6-Amino-2-methylpyridin-3-yl)methyl)amino)-1-oxopropan-2-yl)-4-(benzo[b]thiophen-2-ylmethyl)pyrrolidine-2-carboxamide Di-trifluoroacetate salt]
Ki (MASP-2 (CCP1-CCP2-SP); read-out: MASP-2 Ki): < 500 nM
MASP-2 vs. thrombin selectivity (MASP-2 (CCP1-CCP2-SP)): **** (≥100-fold)
Ki (mMASP-2): < 500 nM
Ki (human α-thrombin; read-out: Thrombin Ki): > 25 µM

Cc1nc(N)ccc1CNC(=O)[C@H](C)NC(=O)[C@H]1C[C@H](Cc2ccc(F)c(Cl)c2)CN1 [compound 1459, (2R,4S)—N—((S)-1-(((6-Amino-2-methylpyridin-3-yl)methyl)amino)-1-oxopropan-2-yl)-4-(3-chloro-4-fluorobenzyl)pyrrolidine-2-carboxamide Di-trifluoroacetate salt]
Ki (MASP-2 (CCP1-CCP2-SP); read-out: MASP-2 Ki): < 500 nM
MASP-2 vs. thrombin selectivity (MASP-2 (CCP1-CCP2-SP)): **** (≥100-fold)
Ki (mMASP-2): < 500 nM
Ki (human α-thrombin; Thrombin Ki (μM)): 2.5 to 10 µM

Cc1nc(N)ccc1CNC(=O)[C@H](C)NC(=O)[C@H]1C[C@H](Cc2nc3cc(Cl)ccc3s2)CN1 [compound 1460, (2R,4R)—N—((S)-1-(((6-Amino-2-methylpyridin-3-yl)methyl)amino)-1-oxopropan-2-yl)-4-((5-chlorobenzo[d]thiazol-2-yl)methyl)pyrrolidine-2-carboxamide Di-trifluoroacetate salt]
Ki (MASP-2 (CCP1-CCP2-SP); read-out: MASP-2 Ki): < 500 nM
MASP-2 vs. thrombin selectivity (MASP-2 (CCP1-CCP2-SP)): **** (≥100-fold)
Ki (mMASP-2): < 500 nM
Ki (human α-thrombin; read-out: Thrombin Ki): > 25 µM

Cc1nc(N)ccc1CNC(=O)[C@H](C)NC(=O)[C@H]1C[C@H](Cc2csc(Cl)c2)CN1 [compound 1461, (2R,4S)—N—((S)-1-(((6-Amino-2-methylpyridin-3-yl)methyl)amino)-1-oxopropan-2-yl)-4-((5-chlorothiophen-3-yl)methyl)pyrrolidine-2-carboxamide Dihydrochloride]
Ki (MASP-2 (CCP1-CCP2-SP); read-out: MASP-2 Ki): < 500 nM
MASP-2 vs. thrombin selectivity (MASP-2 (CCP1-CCP2-SP)): **** (≥100-fold)
Ki (mMASP-2): < 500 nM
Ki (human α-thrombin; Thrombin Ki (μM)): 0.5 to 2.5 µM

C[C@H](NC(=O)[C@H]1C[C@H](c2ccccc2)CN1)C(=O)NCc1cc(Br)cc2cn[nH]c12 [compound 1462, (2R,4R)—N—((S)-1-(((5-bromo-1H-indazol-7-yl)methyl)amino)-1-oxopropan-2-yl)-4-phenylpyrrolidine-2-carboxamide]
Ki (MASP-2 (CCP1-CCP2-SP)): 500 to 2500 nM
MASP-2 vs. thrombin selectivity (MASP-2 (CCP1-CCP2-SP)): ** (≥5.0 to <25-fold)
Ki (mMASP-2): 2500 to 10000 nM
Ki (human α-thrombin; Thrombin Ki (μM)): 10 to 25 µM

C[C@H](NC(=O)[C@H]1C[C@H](c2ccccc2)CN1)C(=O)NCc1cc2cnccc2[nH]1 [compound 1463, (2R,4R)—N—((S)-1-(((1H-Pyrrolo[3,2-c]pyridin-2-yl)methyl)amino)-1-oxopropan-2-yl)-4-phenylpyrrolidine-2-carboxamide Di-trifluoroacetate salt]
Ki (MASP-2 (CCP1-CCP2-SP); read-out: MASP-2 Ki): < 500 nM
Ki (mMASP-2): < 500 nM
Ki (human α-thrombin; read-out: Thrombin Ki): > 25 µM

CCN1C[C@@H](Cc2ccc(Cl)c(Br)c2)C[C@@H]1C(=O)N[C@@H](C)C(=O)NCc1ccc(N)nc1C [compound 1464, (2R,4S)—N—((S)-1-(((6-Amino-2-methylpyridin-3-yl)methyl)amino)-1-oxopropan-2-yl)-4-(3-bromo-4-chlorobenzyl)-1-ethylpyrrolidine-2-carboxamide]
Ki (MASP-2 (CCP1-CCP2-SP); read-out: MASP-2 Ki): < 500 nM
Ki (mMASP-2): < 500 nM
Ki (human α-thrombin; read-out: Thrombin Ki): > 25 µM

Cc1nc(N)ccc1CNC(=O)[C@@H]1CCCN1C(=O)[C@H]1C[C@H](Cc2ccc(Br)cc2)CN1 [compound 1465, (S)—N-((6-Amino-2-methylpyridin-3-yl)methyl)-1-((2R,4S)-4-(4-bromobenzyl)pyrrolidine-2-carbonyl)pyrrolidine-2-carboxamide Di-trifluoroacetate salt]
Ki (MASP-2 (CCP1-CCP2-SP); read-out: MASP-2 Ki): < 500 nM
MASP-2 vs. thrombin selectivity (MASP-2 (CCP1-CCP2-SP)): * (≥1.0 to <5.0-fold)
Ki (mMASP-2): 500 to 2500 nM
Ki (human α-thrombin; read-out: Thrombin Ki): < 0.5 µM

Cc1nc(N)ccc1CNC(=O)[C@H](C)NC(=O)[C@H]1C[C@H](Cc2ccc(Br)c(Cl)c2)CN1 [compound 1466, (2R,4S)—N—((S)-1-(((6-Amino-2-methylpyridin-3-yl)methyl)amino)-1-oxopropan-2-yl)-4-(4-bromo-3-chlorobenzyl)pyrrolidine-2-carboxamide Di-trifluoroacetate salt]
Ki (MASP-2 (CCP1-CCP2-SP); read-out: MASP-2 Ki): < 500 nM
MASP-2 vs. thrombin selectivity (MASP-2 (CCP1-CCP2-SP)): **** (≥100-fold)
Ki (mMASP-2): < 500 nM
Ki (human α-thrombin; Thrombin Ki (μM)): 10 to 25 µM

Cc1nc(N)ccc1CNC(=O)[C@H](C)NC(=O)c1cc(Cc2ccccc2)c[nH]1 [compound 1467, (S)—N-(1-(((6-Amino-2-methylpyridin-3-yl)methyl)amino)-1-oxopropan-2-yl)-4-benzyl-1H-pyrrole-2-carboxamide trifluoroacetic acid]
Ki (MASP-2 (CCP1-CCP2-SP); read-out: MASP-2 Ki): < 500 nM
MASP-2 vs. thrombin selectivity (MASP-2 (CCP1-CCP2-SP)): **** (≥100-fold)
Ki (mMASP-2): 500 to 2500 nM
Ki (human α-thrombin; read-out: Thrombin Ki): > 25 µM

Cc1cc(C[C@@H]2CN[C@@H](C(=O)N[C@@H](C)C(=O)NCc3cnc4c(c3)c(Cl)cn4C)C2)ccn1 [compound 1468, Trifluoroacetate]
Ki (MASP-2 (CCP1-CCP2-SP); read-out: MASP-2 Ki): < 500 nM
MASP-2 vs. thrombin selectivity (MASP-2 (CCP1-CCP2-SP)): **** (≥100-fold)
Ki (mMASP-2): < 500 nM
Ki (human α-thrombin; read-out: Thrombin Ki): > 25 µM

Cc1cc(C[C@@H]2CN[C@@H](C(=O)N[C@@H](C)C(=O)NCc3ccc(N)nc3C)C2)ccn1 [compound 1469, (2R,4S)—N—((S)-1-(((6-Amino-2-methylpyridin-3-yl)methyl)amino)-1-oxopropan-2-yl)-4-((2-methylpyridin-4-yl)methyl)pyrrolidine-2-carboxamide Dihydrochloride]
Ki (MASP-2 (CCP1-CCP2-SP); read-out: MASP-2 Ki): < 500 nM
MASP-2 vs. thrombin selectivity (MASP-2 (CCP1-CCP2-SP)): **** (≥100-fold)
Ki (mMASP-2): < 500 nM
Ki (human α-thrombin; Thrombin Ki (μM)): 2.5 to 10 µM

Cc1nc(N)ccc1CNC(=O)[C@H](C)NC(=O)[C@H]1C[C@H](Cc2ccc3nonc3c2)CN1 [compound 1470, (2R,4S)—N—((S)-1-(((6-Amino-2-methylpyridin-3-yl)methyl)amino)-1-oxopropan-2-yl)-4-(benzo[c][1,2,5]oxadiazol-5-ylmethyl)pyrrolidine-2-carboxamide Di-trifluoroacetate salt]
Ki (MASP-2 (CCP1-CCP2-SP); read-out: MASP-2 Ki): < 500 nM
MASP-2 vs. thrombin selectivity (MASP-2 (CCP1-CCP2-SP)): **** (≥100-fold)
Ki (mMASP-2): < 500 nM
Ki (human α-thrombin; Thrombin Ki (μM)): 2.5 to 10 µM

C[C@H](NC(=O)[C@H]1C[C@H](c2ccccc2)CN1)C(=O)NCc1cnc2sccc2c1 [compound 1471, (2R,4R)—N—((S)-1-oxo-1-((Thieno[2,3-b]pyridin-5-ylmethyl)amino)propan-2-yl)-4-phenylpyrrolidine-2-carboxamide Trifluoroacetate salt]
Ki (MASP-2 (CCP1-CCP2-SP)): 2500 to 10000 nM
Ki (mMASP-2): 2500 to 10000 nM
Ki (human α-thrombin; read-out: Thrombin Ki): > 25 µM

C[C@H](NC(=O)[C@H]1C[C@H](Cc2ccccc2)CN1)C(=O)NCc1cc2cnccc2[nH]1 [compound 1472, (2R,4S)—N—((S)-1-(((1H-Pyrrolo[3,2-c]pyridin-2-yl)methyl)amino)-1-oxopropan-2-yl)-4-benzylpyrrolidine-2-carboxamide Di-trifluoroacetate salt]
Ki (MASP-2 (CCP1-CCP2-SP); read-out: MASP-2 Ki): < 500 nM
MASP-2 vs. thrombin selectivity (MASP-2 (CCP1-CCP2-SP)): **** (≥100-fold)
Ki (mMASP-2): < 500 nM
Ki (human α-thrombin; Thrombin Ki (μM)): 2.5 to 10 µM

Cc1nc(N)ccc1CNC(=O)[C@H](C)NC(=O)[C@H]1C[C@H](Cc2ccc(F)c(Cl)c2)CN1CCC(=O)O [compound 1473, 3-((2R,4S)-2-(((S)-1-(((6-Amino-2-methylpyridin-3-yl)methyl)amino)-1-oxopropan-2-yl)carbamoyl)-4-(3-chloro-4-fluorobenzyl)pyrrolidin-1-yl)propanoic acid Trifluoroacetate salt]
Ki (MASP-2 (CCP1-CCP2-SP); read-out: MASP-2 Ki): < 500 nM
Ki (mMASP-2): < 500 nM
Ki (human α-thrombin; read-out: Thrombin Ki): > 25 µM

C[C@H](NC(=O)[C@H]1C[C@H](Cc2ccc(F)c(Cl)c2)CN1)C(=O)NCc1cnc2c(c1)c(Cl)cn2C [compound 1474, (2R,4S)—N—((S)-1-(((3-Chloro-1-methyl-1H-pyrrolo[2,3-b]pyridin-5-yl)methyl)amino)-1-oxopropan-2-yl)-4-(3-chloro-4-fluorobenzyl)pyrrolidine-2-carboxamide Trifluoroacetate salt]
Ki (MASP-2 (CCP1-CCP2-SP); read-out: MASP-2 Ki): < 500 nM
MASP-2 vs. thrombin selectivity (MASP-2 (CCP1-CCP2-SP)): **** (≥100-fold)
Ki (mMASP-2): < 500 nM
Ki (human α-thrombin; read-out: Thrombin Ki): > 25 µM

COc1ccc(C[C@@H]2CN[C@@H](C(=O)N[C@@H](C)C(=O)NCc3ccc(N)nc3C)C2)cc1Cl [compound 1475, (2R,4S)—N—((S)-1-(((6-Amino-2-methylpyridin-3-yl)methyl)amino)-1-oxopropan-2-yl)-4-(3-chloro-4-methoxybenzyl)pyrrolidine-2-carboxamide Di-trifluoroacetate salt]
Ki (MASP-2 (CCP1-CCP2-SP); read-out: MASP-2 Ki): < 500 nM
MASP-2 vs. thrombin selectivity (MASP-2 (CCP1-CCP2-SP)): **** (≥100-fold)
Ki (mMASP-2): < 500 nM
Ki (human α-thrombin; Thrombin Ki (μM)): 10 to 25 µM

COc1cc2ccccc2cc1C[C@@H]1CN[C@@H](C(=O)N[C@@H](C)C(=O)NCc2ccc(N)nc2C)C1 [compound 1478, (2R,4S)—N—((S)-1-(((6-Amino-2-methylpyridin-3-yl)methyl)amino)-1-oxopropan-2-yl)-4-((3-methoxynaphthalen-2-yl)methyl)pyrrolidine-2-carboxamide Dihydrochloride]
Ki (MASP-2 (CCP1-CCP2-SP); read-out: MASP-2 Ki): < 500 nM
MASP-2 vs. thrombin selectivity (MASP-2 (CCP1-CCP2-SP)): **** (≥100-fold)
Ki (mMASP-2): < 500 nM
Ki (human α-thrombin; Thrombin Ki (μM)): 10 to 25 µM
